Literature values in patent US10285971B2, “Formulations of water-soluble derivatives of vitamin E and soft gel compositions, concentrates and powders containing same” (VIRUN, INC., priority 2014, dated 2019).

Substance | HLB value
sucrose monopalmitate | > 10
sucrose distearate | 3
sucrose dipalmitate | 7.4
